Data on 2 substances can be found in paper PMC9499506, “TNF-α and IL-1β Modulate Blood-Brain Barrier Permeability and Decrease Amyloid-β Peptide Efflux in a Human Blood-Brain Barrier Model” (International Journal of Molecular Sciences, 2022).

The test system of series [1] is BLEC monolayer. As to the kind of experiment: Effect of cytokines on BLEC monolayer permeability to lucifer yellow (PeLY). The class given is cell-based, human. As to conditions: for increase in transcellular passage of LY through BLEC monolayer compared to control / increase in paracellular passage of LY through BLEC monolayer compared to control: 10 ng·mL^−1, 24 h; for increase in transcellular passage of LY through BLEC monolayer compared to control: PeLY 37 °C minus PeLY 4 °C; for increase in paracellular passage of LY through BLEC monolayer compared to control: PeLY at 4 °C; for PeLY of BLECs after cytokine treatment: 10 ng·mL^−1 basolateral, 24 h, LY 50 µM apical-to-basolateral, RH buffer, 37 °C, 60 min, untreated 0.54 ± 0.03, mean ± SEM. Here is the method: Next, we examined the effect of TNF-α and IL-1β on BBB permeability. The physical integrity of the BLECs was monitored by measuring the rate of passage of the small hydrophilic marker lucifer yellow (LY; ~400 Da) from the upper to the lower compartment to calculate the endothelial permeability coefficient of LY (PeLY).
To discriminate the impact of TNF-α and IL-1β on these different pathways and based on our previous PeLY results obtained at 37 °C informing on the global crossing of PeLY (paracellular and transcellular), a PeLY experiment was also performed at 4 °C. […] Thus, inhibition of the transcellular transport allows us to observe only the modification on the paracellular permeability. Then, the transcellular transport of LY, corresponding to the difference between global PeLY and PeLY at 4 °C, was determined.
Each condition was studied in triplicate.
The BLEC monolayer integrity was evaluated after each treatment using the method described by Dehouck and colleagues. The endothelial permeability coefficient (Pe) was evaluated regarding the apical-to-basolateral transport of the LY integrity marker used at a final concentration of 50 µM in RH buffer at 37 °C. Briefly, the inserts containing BLECs were transferred to a new 12-well plate containing warm RH buffer (corresponding to the basolateral compartment), and then a volume of 500 µL of warm RH with 50 µM of LY buffer was added to the apical compartment. The inserts containing the BLECs and RH buffer with 50 µM of LY were then transferred to a new well containing warm RH every 20 min for 1 hour. […] For each condition, coculturing was performed in triplicate. To determine the PeLY values for BLECs, the slope of the clearance curves (PS = permeability × surface area product; in µL·min^−1) corresponding to the volume cleared from the apical to the basolateral compartment (in µL) for 60 min was calculated for the filters with only Matrigel coating and for those with Matrigel coating and BLECs, denoted PSf and PSt, respectively. From these values, the PS values for BLECs (PSe) were determined according to the formula “[…]”. Then, the PeLY values for BLECs (in cm·min^−1) were obtained by the calculation “PeLY = PSe/S”, with PSe in cm^3·min^−1 and S being the filter surface area (= 1.12 cm^2). The same experiment was also performed at 4 °C to block the transcellular permeability of LY and to identify only the paracellular permeability of LY. Following these experiments, the transcellular permeability can be deduced, which corresponds to the PeLY values at 37 °C subtracted by those of PeLY at 4 °C. The mass balance (in %) was determined from the amount of LY in the apical and basolateral compartment at the end of the experiment divided by the total amount initially added in the apical compartment at time zero. To be taken into consideration for the Pe determination, the mass balance should be between 80% and 120%.

Series [2] has as its system BLECs. As to conditions: MTT assay; 10 ng·mL^−1, 24 h, abluminal compartment. Here is the method:
An MTT assay was performed as a preliminary test to determine their effect on BLEC viability and to validate the chosen concentrations. Dimethyl sulfoxide (DMSO) at 10% (v/v) was used as a positive control of cell toxicity.
After 6 days of coculture, TNF-α or IL-1β were added to the basolateral compartment (brain side) at 10 ng·mL^−1 for 24 h, at 37 °C and 5% CO2, to mimic CNS inflammation condition. Each condition was studied in triplicate.
The standard MTT [3-(4,5-dimethylthiazol-2-yl)-2,5-diphenyltetrazolium bromide] assay (AR1156, Boster Biological Technology, Pleasanton, CA, USA) was performed to determine BLEC viability. Briefly, after coculture treatments, culture medium was removed and replaced with worm Ringer-Hepes (RH; 150 mM NaCl, 5.2 mM KCl, 2.2 mM CaCl2, 0.2 mM MgCl2–6H2O, 6 mM NaHCO3, 5 mM HEPES, 2.8 mM glucose; pH: 7.4) in basolateral compartment and with MTT solution (0.5 mg·mL^−1) in RH at in the opposite compartment for 3 h at 37 °C and 5% CO2. […] Aliquot was sampled in 96-well plate and the optical density (OD) was measured with a microplate reader (Synergy H1, BioTek. Colmar, France) at the wavelength of 570 and 630 nm. The percentage of relative cell viability compared to the control condition was subsequently determined using the following formula: % relative cell viability = ((OD570 − OD630) condition)/((OD570 – OD630)control) × 100.

Turning to interleukin-1β [IL-1β], in series [1], the “increase in transcellular passage of LY through BLEC monolayer compared to control” value amounted to 94.2%, the “increase in paracellular passage of LY through BLEC monolayer compared to control” value is reported as 41.3% and the “PeLY of BLECs after cytokine treatment” value was 0.95 ± 0.05 × 10^−3 cm·min^−1. In series [1] (both 10 ng·mL^−1, 24 h), the “greater increase in transcellular passage of LY with IL-1β compared to TNF-α treatment” value amounted to 54.2%. In series [2], the “effect on BLEC viability” value is “did not affect BLEC viability”.
For tumor necrosis factor-α [TNF-α], in series [1], the “increase in transcellular passage of LY through BLEC monolayer compared to control” value worked out at 40.1%, the “increase in paracellular passage of LY through BLEC monolayer compared to control” value came to 175.2% and the “PeLY of BLECs after cytokine treatment” value is listed as 1.00 ± 0.03 × 10^−3 cm·min^−1. Besides, the “greater increase in paracellular passage of LY with TNF-α compared to IL-1β treatment” value in series [1] (both 10 ng·mL^−1, 24 h) is reported as 133.9%.
